Test results from patent US9938273B2 (Plexxikon Inc., priority 2015, dated 2018).

Legend:
Type in all cases: biochemical
[1] = target: T1, FLT3-ITD (Homo sapiens, UniProt P36888); test: AlphaScreen kinase assay with recombinant enzyme, FLT3-ITD; conditions: 8pt; read-out: FLT3_ITD 8pt: IC50
T1 sequence (P36888 1-993): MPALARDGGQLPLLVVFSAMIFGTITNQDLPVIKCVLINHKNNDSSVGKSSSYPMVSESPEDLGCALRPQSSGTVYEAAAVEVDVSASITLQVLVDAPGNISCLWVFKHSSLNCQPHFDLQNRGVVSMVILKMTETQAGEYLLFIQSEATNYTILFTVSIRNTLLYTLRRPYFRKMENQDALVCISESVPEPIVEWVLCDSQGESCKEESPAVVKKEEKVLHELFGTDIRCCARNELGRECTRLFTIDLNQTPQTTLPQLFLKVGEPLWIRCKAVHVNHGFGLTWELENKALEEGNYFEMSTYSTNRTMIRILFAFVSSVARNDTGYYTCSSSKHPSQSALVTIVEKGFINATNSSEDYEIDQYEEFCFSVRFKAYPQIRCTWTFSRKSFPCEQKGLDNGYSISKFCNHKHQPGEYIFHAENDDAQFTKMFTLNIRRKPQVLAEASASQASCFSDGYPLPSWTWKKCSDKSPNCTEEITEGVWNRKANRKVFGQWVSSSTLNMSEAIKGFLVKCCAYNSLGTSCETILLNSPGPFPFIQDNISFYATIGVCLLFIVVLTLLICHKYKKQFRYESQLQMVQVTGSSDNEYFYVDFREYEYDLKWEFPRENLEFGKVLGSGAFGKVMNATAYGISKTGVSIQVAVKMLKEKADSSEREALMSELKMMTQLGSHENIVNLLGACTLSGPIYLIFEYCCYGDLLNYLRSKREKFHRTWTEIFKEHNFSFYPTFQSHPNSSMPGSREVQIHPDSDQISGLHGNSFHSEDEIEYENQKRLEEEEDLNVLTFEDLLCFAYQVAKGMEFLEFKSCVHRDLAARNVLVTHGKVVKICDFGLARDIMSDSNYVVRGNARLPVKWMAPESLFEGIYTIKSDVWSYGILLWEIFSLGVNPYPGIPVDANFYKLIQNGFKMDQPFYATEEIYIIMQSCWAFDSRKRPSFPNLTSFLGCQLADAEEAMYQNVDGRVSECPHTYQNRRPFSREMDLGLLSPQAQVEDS
Method in brief: (§1)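 Recombinant kinase phosphorylates biotinylated poly(Glu4-Tyr) peptide (30 nM final); streptavidin donor and anti-phosphotyrosine PY20 acceptor beads (10 μg/mL final) give a 580 nm proximity signal on 680 nm excitation. IC50 determinations used a final concentration of 10 μM for FLT3-D835Y/FLT3-ITD and 100 μM for c-KIT.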

[2] = target: T2, FLT3-D835Y (Homo sapiens, UniProt P36888, D835Y); test: AlphaScreen kinase assay with recombinant enzyme, FLT3-D835Y; conditions: 8pt, GMean
T2 construct: purchased Invitrogen PV3967
T2 sequence (P36888 27-993 D835Y): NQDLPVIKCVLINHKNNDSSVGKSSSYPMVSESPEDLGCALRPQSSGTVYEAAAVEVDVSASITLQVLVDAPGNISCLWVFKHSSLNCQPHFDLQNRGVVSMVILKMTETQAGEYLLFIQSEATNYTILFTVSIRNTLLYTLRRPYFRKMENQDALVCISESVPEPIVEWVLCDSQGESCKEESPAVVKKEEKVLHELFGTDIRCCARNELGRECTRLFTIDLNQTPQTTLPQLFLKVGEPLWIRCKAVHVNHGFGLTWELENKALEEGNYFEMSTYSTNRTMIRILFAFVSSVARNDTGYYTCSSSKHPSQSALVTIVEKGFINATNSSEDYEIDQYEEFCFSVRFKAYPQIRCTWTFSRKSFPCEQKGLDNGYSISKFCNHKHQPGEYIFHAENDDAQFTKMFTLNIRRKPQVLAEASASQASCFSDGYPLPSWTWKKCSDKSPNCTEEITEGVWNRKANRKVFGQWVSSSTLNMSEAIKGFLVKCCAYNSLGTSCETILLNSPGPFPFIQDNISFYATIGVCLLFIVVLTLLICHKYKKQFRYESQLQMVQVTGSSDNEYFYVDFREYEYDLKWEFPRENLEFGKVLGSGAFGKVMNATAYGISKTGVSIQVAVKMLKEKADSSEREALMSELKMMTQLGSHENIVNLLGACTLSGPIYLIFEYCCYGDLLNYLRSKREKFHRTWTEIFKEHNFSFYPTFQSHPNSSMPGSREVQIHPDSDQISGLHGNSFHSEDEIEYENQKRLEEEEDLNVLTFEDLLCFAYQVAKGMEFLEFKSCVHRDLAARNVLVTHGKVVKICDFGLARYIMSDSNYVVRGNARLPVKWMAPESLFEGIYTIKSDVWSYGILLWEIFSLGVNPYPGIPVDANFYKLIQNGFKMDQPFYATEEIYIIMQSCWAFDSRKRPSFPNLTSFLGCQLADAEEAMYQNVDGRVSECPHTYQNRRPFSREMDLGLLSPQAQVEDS
Method in brief: as §1

[3] = target: T3, c-KIT (Homo sapiens, UniProt P10721); test: AlphaScreen kinase assay with recombinant enzyme, c-KIT; conditions: 100ATP, 8pt, GMean
T3 construct: purchased Millipore 14-559K
Method in brief: as §1

T3 sequence (P10721 26-976): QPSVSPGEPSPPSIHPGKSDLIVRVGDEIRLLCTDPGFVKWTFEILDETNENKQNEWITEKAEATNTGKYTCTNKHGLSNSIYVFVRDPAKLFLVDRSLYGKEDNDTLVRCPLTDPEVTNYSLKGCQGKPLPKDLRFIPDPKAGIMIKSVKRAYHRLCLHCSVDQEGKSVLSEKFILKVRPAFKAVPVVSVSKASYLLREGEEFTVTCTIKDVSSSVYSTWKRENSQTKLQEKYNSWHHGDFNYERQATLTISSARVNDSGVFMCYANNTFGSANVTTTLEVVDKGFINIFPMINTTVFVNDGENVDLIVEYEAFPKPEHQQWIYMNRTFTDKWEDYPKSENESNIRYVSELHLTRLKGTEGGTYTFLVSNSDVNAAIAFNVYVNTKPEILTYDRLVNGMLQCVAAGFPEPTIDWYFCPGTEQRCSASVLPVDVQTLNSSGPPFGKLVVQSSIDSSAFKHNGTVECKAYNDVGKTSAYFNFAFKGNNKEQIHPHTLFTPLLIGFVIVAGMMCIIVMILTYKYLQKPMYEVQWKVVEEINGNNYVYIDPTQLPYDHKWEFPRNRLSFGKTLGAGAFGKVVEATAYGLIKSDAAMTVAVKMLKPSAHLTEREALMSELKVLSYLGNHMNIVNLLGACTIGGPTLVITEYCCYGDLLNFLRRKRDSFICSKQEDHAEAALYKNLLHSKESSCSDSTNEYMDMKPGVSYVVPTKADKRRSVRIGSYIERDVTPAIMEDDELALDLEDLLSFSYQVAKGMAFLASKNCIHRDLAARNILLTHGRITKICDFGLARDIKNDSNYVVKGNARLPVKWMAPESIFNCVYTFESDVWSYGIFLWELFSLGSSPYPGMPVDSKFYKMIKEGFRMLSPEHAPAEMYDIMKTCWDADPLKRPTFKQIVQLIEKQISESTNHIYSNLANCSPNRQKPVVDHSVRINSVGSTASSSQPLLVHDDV

Row | SMILES | IC50 [1] [µM] | IC50 [2] [µM] | IC50 [3] [µM]
1 | NC(=O)Nc1ccc(-c2cnc3[nH]c(-c4ccccc4)cc3c2)cc1 [Compound P-0005, [4-(2-phenyl-1H-pyrrolo[2,3-b]pyridin-5-yl)phenyl]urea] | 0.0001 to 10 | 10 to 50 | 0.0001 to 10
2 | NCC1CCN(C(=O)c2cccc(-c3cnc4[nH]c(-c5ccccc5)cc4c3)n2)CC1 [Compound P-0026, [4-(aminomethyl)-1-piperidyl]-[6-(2-phenyl-1H-pyrrolo[2,3-b]pyridin-5-yl)-2-pyridyl]methanone] | 0.0001 to 10 | 0.0001 to 10 | 0.0001 to 10
3 | CNC(=O)Nc1ccc(-c2cnc3[nH]c(-c4ccccc4)cc3c2)cc1 [Compound P-0006, 1-methyl-3-[4-(2-phenyl-1H-pyrrolo[2,3-b]pyridin-5-yl)phenyl]urea] | 0.0001 to 10 | 0.0001 to 10 | 0.0001 to 10
4 | CONC(=O)c1cccc(-c2cnc3[nH]c(-c4ccccc4)cc3c2)c1 [Compound P-0003, N-methoxy-3-(2-phenyl-1H-pyrrolo[2,3-b]pyridin-5-yl)benzamide] | 0.0001 to 10 | 0.0001 to 10 | 0.0001 to 10
5 | CN1CCC(NC(=O)c2n[nH]c3ccc(-c4cnc5[nH]c(-c6ccccc6)cc5c4)cc23)CC1 [Compound P-0022, N-(1-methyl-4-piperidyl)-5-(2-phenyl-1H-pyrrolo[2,3-b]pyridin-5-yl)-1H-indazole-3-carboxamide] | 0.0001 to 10 | 0.0001 to 10 | 0.0001 to 10
6 | O=C(c1cccc(-c2cnc3[nH]c(-c4ccccc4)cc3c2)n1)N1CCC(N2CCOCC2)C1 (stereo not drawn) [Compound P-0102, (3-morpholinopyrrolidin-1-yl)-[6-(2-phenyl-1H-pyrrolo[2,3-b]pyridin-5-yl)-2-pyridyl]methanone] | 0.0001 to 10 | 0.0001 to 10 | 50 to 100
7 | CS(=O)(=O)NC1CCN(C(=O)c2cccc(-c3cnc4[nH]c(-c5ccccc5)cc4c3)n2)C1 (stereo not drawn) [Compound P-0101, N-[1-[6-(2-phenyl-1H-pyrrolo[2,3-b]pyridin-5-yl)pyridine-2-carbonyl]pyrrolidin-3-yl]methanesulfonamide] | 0.0001 to 10 | 0.0001 to 10 | 50 to 100
8 | NC1CCN(C(=O)c2n[nH]c3ccc(-c4cnc5[nH]c(-c6ccccc6)cc5c4)cc23)CC1 [Compound P-0012, (4-amino-1-piperidyl)-[5-(2-phenyl-1H-pyrrolo[2,3-b]pyridin-5-yl)-1H-indazol-3-yl]methanone] | 0.0001 to 10 | 0.0001 to 10 | 0.0001 to 10
9 | CNC1CCN(C(=O)c2cccc(-c3cnc4[nH]c(-c5cccc(C#N)c5)cc4c3)n2)C1 (stereo not drawn) [Compound P-0062, 3-[5-[6-[3-(methylamino)pyrrolidine-1-carbonyl]-2-pyridyl]-1H-pyrrolo[2,3-b]pyridin-2-yl]benzonitrile] | 0.0001 to 10 | 0.0001 to 10 | 10 to 50
10 | CC(C)(C#N)NC(=O)c1cccc(-c2cnc3[nH]c(-c4cnc(C(C)(C)O)nc4)cc3c2)n1 [Compound P-0211, N-(1-cyano-1-methyl-ethyl)-6-[2-[2-(1-hydroxy-1-methyl-ethyl)pyrimidin-5-yl]-1H-pyrrolo[2,3-b]pyridin-5-yl]pyridine-2-carboxamide] | 0.0001 to 10 | 0.0001 to 10 | 50 to 100
11 | CNC1CCN(C(=O)c2cccc(-c3cnc4[nH]c(-c5ccc(F)cc5)cc4c3)n2)C1 (stereo not drawn) [Compound P-0055, [6-[2-(4-fluorophenyl)-1H-pyrrolo[2,3-b]pyridin-5-yl]-2-pyridyl]-[3-(methylamino)pyrrolidin-1-yl]methanone] | 0.0001 to 10 | 0.0001 to 10 | 0.0001 to 10
12 | O=C(c1cccc(-c2cnc3[nH]c(-c4ccccc4)cc3c2)n1)N1CC(F)(F)C1 [Compound P-0090, (3,3-difluoroazetidin-1-yl)-[6-(2-phenyl-1H-pyrrolo[2,3-b]pyridin-5-yl)-2-pyridyl]methanone] | 0.0001 to 10 | 0.0001 to 10 | 50 to 100
13 | CNC1CCN(C(=O)c2cccc(-c3cnc4[nH]c(-c5ccnc(OC)c5)cc4c3)n2)C1 (stereo not drawn) [Compound P-0060, [6-[2-(2-methoxy-4-pyridyl)-1H-pyrrolo[2,3-b]pyridin-5-yl]-2-pyridyl]-[3-(methylamino)pyrrolidin-1-yl]methanone] | 0.0001 to 10 | 0.0001 to 10 | 0.0001 to 10
14 | O=C(c1cccc(-c2cnc3[nH]c(-c4ccccc4)cc3c2)n1)N1CCC(NC2CC2)C1 (stereo not drawn) [Compound P-0085, [3-(cyclopropylamino)pyrrolidin-1-yl]-[6-(2-phenyl-1H-pyrrolo[2,3-b]pyridin-5-yl)-2-pyridyl]methanone] | 0.0001 to 10 | 0.0001 to 10 | 0.0001 to 10
15 | N[C@H]1CCN(C(=O)c2n[nH]c3ccc(-c4cnc5[nH]c(-c6ccccc6)cc5c4)cc23)C1 [Compound P-0016, [(3S)-3-aminopyrrolidin-1-yl]-[5-(2-phenyl-1H-pyrrolo[2,3-b]pyridin-5-yl)-1H-indazol-3-yl]methanone] | 0.0001 to 10 | 0.0001 to 10 | 0.0001 to 10
16 | CNC1CN(C(=O)c2cccc(-c3cnc4[nH]c(-c5ccccc5)cc4c3)n2)C1 [Compound P-0052, [3-(methylamino)azetidin-1-yl]-[6-(2-phenyl-1H-pyrrolo[2,3-b]pyridin-5-yl)-2-pyridyl]methanone] | 0.0001 to 10 | 0.0001 to 10 | 0.0001 to 10
17 | COC1CCN(C(=O)c2cccc(-c3cnc4[nH]c(-c5ccccc5)cc4c3)n2)CC1 [Compound P-0098, (4-methoxy-1-piperidyl)-[6-(2-phenyl-1H-pyrrolo[2,3-b]pyridin-5-yl)-2-pyridyl]methanone] | 0.0001 to 10 | 0.0001 to 10 | 50 to 100
18 | CC(C)(C)OC(=O)NC1CCN(C(=O)c2cccc(-c3cnc4[nH]c(-c5ccccc5)cc4c3)n2)CC1 [Compound P-0017, tert-butyl N-[1-[6-(2-phenyl-1H-pyrrolo[2,3-b]pyridin-5-yl)pyridine-2-carbonyl]-4-piperidyl]carbamate] | 0.0001 to 10 | 0.0001 to 10 | 10 to 50
19 | CNC1CCN(S(=O)(=O)c2cccc(-c3cnc4[nH]c(-c5ccccc5)cc4c3)n2)C1 (stereo not drawn) [Compound P-0063, N-methyl-1-[[6-(2-phenyl-1H-pyrrolo[2,3-b]pyridin-5-yl)-2-pyridyl]sulfonyl]pyrrolidin-3-amine] | 0.0001 to 10 | 0.0001 to 10 | 0.0001 to 10
20 | NC1CCC(NC(=O)c2cccc(-c3cnc4[nH]c(-c5ccccc5)cc4c3)n2)CC1 (stereo not drawn) [Compound P-0018, N-(4-aminocyclohexyl)-6-(2-phenyl-1H-pyrrolo[2,3-b]pyridin-5-yl)pyridine-2-carboxamide] | 0.0001 to 10 | 0.0001 to 10 | 0.0001 to 10
